Reference: ChEMBL document CHEMBL1135329, “DNA binding ligands with excellent antibiotic potency against drug-resistant gram-positive bacteria” (Bioorg Med Chem Lett, 2002)
In brackets after ≈: the same amount, converted by molar mass.

The molecules below were run on Candida albicans (assay: Antifungal activity was determined against Candida albicans). Conditions: not given.
Assay type: functional
In the case of Cn1cc(NC(=O)c2cc(NC(=O)c3cc(NC(=O)c4nsc(NCCCCN)c4Cl)cn3C)cn2C)cc1C(=O)NCCCNC1CCCCC1, the MIC is reported as 32 µg/mL (≈ 42.4 µM). Work on Cn1cc(NC(=O)c2cc(NC(=O)c3cc(NC(=O)c4nsc(NCCN5CCOCC5)c4Cl)cn3C)cn2C)cc1C(=O)NCC1CC1 yielded an MIC greater than 32 µg/mL. In the case of CN(C)CCCNC(=O)c1cc(NC(=O)c2cc(NC(=O)c3cc(NC(=O)c4nsc(NCCCN)c4Cl)cn3C)cn2C)cn1C, the MIC is reported as 8 µg/mL (≈ 11.7 µM). For Cn1cc(NC(=O)c2cc(NC(=O)c3cc(NC(=O)c4nsc(NCCc5ccncc5)c4Cl)cn3C)cn2C)cc1C(=O)NCCN1CCOCC1, the MIC was greater than 32 µg/mL. Molecule Cn1cc(NC(=O)c2cc(NC(=O)c3cc(NC(=O)c4nsc(NCC5CC5)c4Cl)cn3C)cn2C)cc1C(=O)NCCN1CCOCC1 has an MIC greater than 32 µg/mL.

Each molecule was assayed on Escherichia coli (assay: Binding to the sequence 5'-ACAATTAA-3', a site proximal to the […] RNA polymerase subunit binding site within the Escherichia coli Trc promoter.). Conditions: read-out: Kd app.
Assay type: functional
Molecule Cn1cc(NC(=O)c2cc(NC(=O)c3cc(NC(=O)c4nsc(NCCCCN)c4Cl)cn3C)cn2C)cc1C(=O)NCCCNC1CCCCC1 has a Kd of 0.43 nM. With Cn1cc(NC(=O)c2cc(NC(=O)c3cc(NC(=O)c4nsc(NCCN5CCOCC5)c4Cl)cn3C)cn2C)cc1C(=O)NCC1CC1 the Kd was 208 nM. CN(C)CCCNC(=O)c1cc(NC(=O)c2cc(NC(=O)c3cc(NC(=O)c4nsc(NCCCN)c4Cl)cn3C)cn2C)cn1C was tested, and the Kd was 1.74 nM. Work on Cn1cc(NC(=O)c2cc(NC(=O)c3cc(NC(=O)c4nsc(NCCc5ccncc5)c4Cl)cn3C)cn2C)cc1C(=O)NCCN1CCOCC1 yielded a Kd of 0.29 nM. Molecule Cn1cc(NC(=O)c2cc(NC(=O)c3cc(NC(=O)c4nsc(NCC5CC5)c4Cl)cn3C)cn2C)cc1C(=O)NCCN1CCOCC1 has a Kd of 1.01 nM.

These molecules were tested on Enterococcus faecalis (assay: Antimicrobial activity was determined against vancomycin-resistant Enterococcus faecalis (VREF 51559)). Conditions: not given.
Assay type: functional
Work on Cn1cc(NC(=O)c2cc(NC(=O)c3cc(NC(=O)c4nsc(NCCCCN)c4Cl)cn3C)cn2C)cc1C(=O)NCCCNC1CCCCC1 yielded an MIC of 2 µg/mL (≈ 2.65 µM). For Cn1cc(NC(=O)c2cc(NC(=O)c3cc(NC(=O)c4nsc(NCCN5CCOCC5)c4Cl)cn3C)cn2C)cc1C(=O)NCC1CC1, the MIC was 1 µg/mL (≈ 1.41 µM). CN(C)CCCNC(=O)c1cc(NC(=O)c2cc(NC(=O)c3cc(NC(=O)c4nsc(NCCCN)c4Cl)cn3C)cn2C)cn1C gave an MIC of 2 µg/mL (≈ 2.91 µM). Cn1cc(NC(=O)c2cc(NC(=O)c3cc(NC(=O)c4nsc(NCCc5ccncc5)c4Cl)cn3C)cn2C)cc1C(=O)NCCN1CCOCC1 was tested, and the MIC was 2 µg/mL (≈ 2.62 µM). In the case of Cn1cc(NC(=O)c2cc(NC(=O)c3cc(NC(=O)c4nsc(NCC5CC5)c4Cl)cn3C)cn2C)cc1C(=O)NCCN1CCOCC1, the MIC is reported as 1 µg/mL (≈ 1.41 µM).

These molecules were tested on Enterococcus faecalis (assay: Antimicrobial activity was determined against vancomycin-susceptible Enterococcus faecalis (VSEF 29212)). Conditions: not given.
Assay type: functional
Cn1cc(NC(=O)c2cc(NC(=O)c3cc(NC(=O)c4nsc(NCCCCN)c4Cl)cn3C)cn2C)cc1C(=O)NCCCNC1CCCCC1 gave an MIC of 0.5 µg/mL (≈ 0.663 µM). In the case of Cn1cc(NC(=O)c2cc(NC(=O)c3cc(NC(=O)c4nsc(NCCN5CCOCC5)c4Cl)cn3C)cn2C)cc1C(=O)NCC1CC1, the MIC is reported as 0.5 µg/mL (≈ 0.703 µM). For CN(C)CCCNC(=O)c1cc(NC(=O)c2cc(NC(=O)c3cc(NC(=O)c4nsc(NCCCN)c4Cl)cn3C)cn2C)cn1C, the MIC was 1 µg/mL (≈ 1.46 µM). Cn1cc(NC(=O)c2cc(NC(=O)c3cc(NC(=O)c4nsc(NCCc5ccncc5)c4Cl)cn3C)cn2C)cc1C(=O)NCCN1CCOCC1 was tested, and the MIC was 0.25 µg/mL (≈ 0.328 µM). With Cn1cc(NC(=O)c2cc(NC(=O)c3cc(NC(=O)c4nsc(NCC5CC5)c4Cl)cn3C)cn2C)cc1C(=O)NCCN1CCOCC1 the MIC was 0.25 µg/mL (≈ 0.351 µM).

These molecules were tested on Staphylococcus aureus (assay: Antimicrobial activity was determined against methicillin-resistant Staphylococcus aureus (MRSA 27660)). Conditions: not given.
Assay type: functional
Cn1cc(NC(=O)c2cc(NC(=O)c3cc(NC(=O)c4nsc(NCCCCN)c4Cl)cn3C)cn2C)cc1C(=O)NCCCNC1CCCCC1 showed an MIC of 1 µg/mL (≈ 1.33 µM). Molecule Cn1cc(NC(=O)c2cc(NC(=O)c3cc(NC(=O)c4nsc(NCCN5CCOCC5)c4Cl)cn3C)cn2C)cc1C(=O)NCC1CC1 has an MIC of 8 µg/mL (≈ 11.2 µM). For CN(C)CCCNC(=O)c1cc(NC(=O)c2cc(NC(=O)c3cc(NC(=O)c4nsc(NCCCN)c4Cl)cn3C)cn2C)cn1C, the MIC was 1 µg/mL (≈ 1.46 µM). With Cn1cc(NC(=O)c2cc(NC(=O)c3cc(NC(=O)c4nsc(NCCc5ccncc5)c4Cl)cn3C)cn2C)cc1C(=O)NCCN1CCOCC1 the MIC was 1 µg/mL (≈ 1.31 µM). Molecule Cn1cc(NC(=O)c2cc(NC(=O)c3cc(NC(=O)c4nsc(NCC5CC5)c4Cl)cn3C)cn2C)cc1C(=O)NCCN1CCOCC1 has an MIC of 1 µg/mL (≈ 1.41 µM).

The molecules below were run on Staphylococcus aureus (assay: Antimicrobial activity was determined against methicillin-susceptible S. aureus(MSSA 29213)). Conditions: not given.
Assay type: functional
With Cn1cc(NC(=O)c2cc(NC(=O)c3cc(NC(=O)c4nsc(NCCCCN)c4Cl)cn3C)cn2C)cc1C(=O)NCCCNC1CCCCC1 the MIC was 0.5 µg/mL (≈ 0.663 µM). Molecule Cn1cc(NC(=O)c2cc(NC(=O)c3cc(NC(=O)c4nsc(NCCN5CCOCC5)c4Cl)cn3C)cn2C)cc1C(=O)NCC1CC1 has an MIC of 16 µg/mL (≈ 22.5 µM). CN(C)CCCNC(=O)c1cc(NC(=O)c2cc(NC(=O)c3cc(NC(=O)c4nsc(NCCCN)c4Cl)cn3C)cn2C)cn1C gave an MIC of 2 µg/mL (≈ 2.91 µM). Cn1cc(NC(=O)c2cc(NC(=O)c3cc(NC(=O)c4nsc(NCCc5ccncc5)c4Cl)cn3C)cn2C)cc1C(=O)NCCN1CCOCC1 gave an MIC of 1 µg/mL (≈ 1.31 µM). Cn1cc(NC(=O)c2cc(NC(=O)c3cc(NC(=O)c4nsc(NCC5CC5)c4Cl)cn3C)cn2C)cc1C(=O)NCCN1CCOCC1 showed an MIC of 0.5 µg/mL (≈ 0.703 µM).

What follows are molecules tested on Streptococcus pneumoniae (assay: Antimicrobial activity was determined against penicillin-resistant Streptococcus pneumoniae (PRSP 51422)). Conditions: not given.
Assay type: functional
Work on Cn1cc(NC(=O)c2cc(NC(=O)c3cc(NC(=O)c4nsc(NCCCCN)c4Cl)cn3C)cn2C)cc1C(=O)NCCCNC1CCCCC1 yielded an MIC of 4 µg/mL (≈ 5.3 µM). Work on Cn1cc(NC(=O)c2cc(NC(=O)c3cc(NC(=O)c4nsc(NCCN5CCOCC5)c4Cl)cn3C)cn2C)cc1C(=O)NCC1CC1 yielded an MIC of 0.5 µg/mL (≈ 0.703 µM). In the case of CN(C)CCCNC(=O)c1cc(NC(=O)c2cc(NC(=O)c3cc(NC(=O)c4nsc(NCCCN)c4Cl)cn3C)cn2C)cn1C, the MIC is reported as 4 µg/mL (≈ 5.83 µM). Molecule Cn1cc(NC(=O)c2cc(NC(=O)c3cc(NC(=O)c4nsc(NCCc5ccncc5)c4Cl)cn3C)cn2C)cc1C(=O)NCCN1CCOCC1 has an MIC of 0.25 µg/mL (≈ 0.328 µM). With Cn1cc(NC(=O)c2cc(NC(=O)c3cc(NC(=O)c4nsc(NCC5CC5)c4Cl)cn3C)cn2C)cc1C(=O)NCCN1CCOCC1 the MIC was 0.125 µg/mL (≈ 0.176 µM).

What follows are molecules tested on Streptococcus pneumoniae (assay: Antimicrobial activity was determined against penicillin-susceptible Streptococcus pneumoniae (PSSP 49619)). Conditions: not given.
Assay type: functional
Work on Cn1cc(NC(=O)c2cc(NC(=O)c3cc(NC(=O)c4nsc(NCCCCN)c4Cl)cn3C)cn2C)cc1C(=O)NCCCNC1CCCCC1 yielded an MIC of 1 µg/mL (≈ 1.33 µM). In the case of Cn1cc(NC(=O)c2cc(NC(=O)c3cc(NC(=O)c4nsc(NCCN5CCOCC5)c4Cl)cn3C)cn2C)cc1C(=O)NCC1CC1, the MIC is reported as 1 µg/mL (≈ 1.41 µM). Work on CN(C)CCCNC(=O)c1cc(NC(=O)c2cc(NC(=O)c3cc(NC(=O)c4nsc(NCCCN)c4Cl)cn3C)cn2C)cn1C yielded an MIC of 0.5 µg/mL (≈ 0.729 µM). Cn1cc(NC(=O)c2cc(NC(=O)c3cc(NC(=O)c4nsc(NCCc5ccncc5)c4Cl)cn3C)cn2C)cc1C(=O)NCCN1CCOCC1 showed an MIC of 0.062 µg/mL (≈ 0.0813 µM). Cn1cc(NC(=O)c2cc(NC(=O)c3cc(NC(=O)c4nsc(NCC5CC5)c4Cl)cn3C)cn2C)cc1C(=O)NCCN1CCOCC1 gave an MIC of 0.125 µg/mL (≈ 0.176 µM).
